The source of these data is PMC7073924, “2-Aminomethylene-5-sulfonylthiazole Inhibitors of Lysyl Oxidase (LOX) and LOXL2 Show Significant Efficacy in Delaying Tumor Growth” (Journal of Medicinal Chemistry, 2019).

As usually defined, the IC50 is the midpoint of a concentration-inhibition curve.

Values joined by “and” are separate entries in the source; they are usually repeats but may differ in a detail not shown here. Identical values can stand only once. Counter-ions that a name gives are not always drawn. Like-named read-outs stand apart in the source and are kept apart here.

Assay [1] deals with T1, LOXL2 (Homo sapiens, UniProt Q9Y4K0).
T1 sequence (Q9Y4K0 26-774): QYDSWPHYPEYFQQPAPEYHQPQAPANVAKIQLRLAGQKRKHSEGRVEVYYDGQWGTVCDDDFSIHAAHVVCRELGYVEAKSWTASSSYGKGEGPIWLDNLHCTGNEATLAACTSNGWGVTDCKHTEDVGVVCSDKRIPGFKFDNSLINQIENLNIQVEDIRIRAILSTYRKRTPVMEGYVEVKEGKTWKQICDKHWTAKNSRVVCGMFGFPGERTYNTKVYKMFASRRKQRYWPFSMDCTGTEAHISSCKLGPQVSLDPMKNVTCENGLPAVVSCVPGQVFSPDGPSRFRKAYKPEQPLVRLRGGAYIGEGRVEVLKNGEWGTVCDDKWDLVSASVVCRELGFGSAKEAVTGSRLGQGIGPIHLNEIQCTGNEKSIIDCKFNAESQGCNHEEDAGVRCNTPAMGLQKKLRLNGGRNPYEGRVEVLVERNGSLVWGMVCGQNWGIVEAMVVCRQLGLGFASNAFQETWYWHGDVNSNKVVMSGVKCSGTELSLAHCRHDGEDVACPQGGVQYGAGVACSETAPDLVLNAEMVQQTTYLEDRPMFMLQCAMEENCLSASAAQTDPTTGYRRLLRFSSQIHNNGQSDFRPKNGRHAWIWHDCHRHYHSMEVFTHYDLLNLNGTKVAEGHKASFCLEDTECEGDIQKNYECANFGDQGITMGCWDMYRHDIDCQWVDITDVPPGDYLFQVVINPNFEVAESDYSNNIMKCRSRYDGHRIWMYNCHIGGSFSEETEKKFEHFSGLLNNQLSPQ
The class given is biochemical.
Protocol: The enzyme/inhibitor mixture was then diluted 100-fold into a solution containing all enzyme reaction components, and the activity of the enzyme was assessed.
LOXL2 catalytic activity was determined using the Amplex Red hydrogen peroxide assay kit with cadaverine dihydrochloride as substrate. […] The enzyme/inhibitor mixture was then diluted 100-fold into a solution containing substrate and detection reagents and read kinetically every 5 min.

For a further assay, the target named is T2, LOX (Sus scrofa, UniProt P45845).
T2 sequence (P45845 1-249): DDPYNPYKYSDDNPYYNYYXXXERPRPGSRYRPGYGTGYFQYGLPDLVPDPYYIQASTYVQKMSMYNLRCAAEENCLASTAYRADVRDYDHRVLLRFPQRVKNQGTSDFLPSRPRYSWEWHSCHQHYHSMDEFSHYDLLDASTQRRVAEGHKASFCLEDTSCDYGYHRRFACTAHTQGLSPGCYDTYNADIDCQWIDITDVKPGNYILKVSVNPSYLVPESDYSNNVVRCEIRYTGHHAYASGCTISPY
In words: LOX enzyme assay (Promega ROS-Glo, cadaverine substrate). The class given is biochemical, pig.

The target in assay [2] is T3, LOXL3 (Homo sapiens, UniProt P58215).
T3 sequence (P58215 26-753): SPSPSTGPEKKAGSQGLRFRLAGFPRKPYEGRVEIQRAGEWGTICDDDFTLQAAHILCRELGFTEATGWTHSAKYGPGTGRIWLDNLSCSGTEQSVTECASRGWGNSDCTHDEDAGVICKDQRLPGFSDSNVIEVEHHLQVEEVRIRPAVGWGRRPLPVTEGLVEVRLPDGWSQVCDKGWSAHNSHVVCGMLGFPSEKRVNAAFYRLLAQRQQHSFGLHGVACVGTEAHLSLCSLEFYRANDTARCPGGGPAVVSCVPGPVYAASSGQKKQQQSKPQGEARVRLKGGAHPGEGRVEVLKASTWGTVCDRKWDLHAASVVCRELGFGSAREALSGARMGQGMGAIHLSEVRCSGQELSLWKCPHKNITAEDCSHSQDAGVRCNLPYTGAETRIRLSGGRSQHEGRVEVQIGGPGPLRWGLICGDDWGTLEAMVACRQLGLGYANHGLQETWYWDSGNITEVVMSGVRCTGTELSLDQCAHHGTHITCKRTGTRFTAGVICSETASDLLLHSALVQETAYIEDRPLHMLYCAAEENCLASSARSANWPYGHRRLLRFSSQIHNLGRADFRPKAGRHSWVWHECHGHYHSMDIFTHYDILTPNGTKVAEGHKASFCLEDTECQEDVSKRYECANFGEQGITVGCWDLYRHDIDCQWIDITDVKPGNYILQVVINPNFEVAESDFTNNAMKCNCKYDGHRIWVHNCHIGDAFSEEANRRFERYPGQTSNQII
In words: LOXL3 enzyme assay (Promega ROS-Glo, cadaverine substrate). The class given is biochemical.
Protocol: (§1) LOXL2 and LOXL3 were purchased from R&D Systems. LOX, LOXL2, and LOXL3 catalytic activity were determined using the Promega ROS-Glo assay kit with cadaverine dihydrochloride as substrate, BAPN as the reference inhibitor control, a preincubation time of 20 min, 1 h, or 3 h, with nine dilutions from a top concentration of 10 μM or 100 μM.

The target in assay [3] is T1, LOXL2. The experiment in a line: LOXL2 enzyme assay (Promega ROS-Glo, cadaverine substrate). The class given is biochemical.
Protocol: as §1
Assay [4] deals with T3, LOXL3. The arrangement: method as in PMID 30536539, PMID 28471663. To be noted: literature compounds; cited from earlier work.
For a further assay, the target named is T4, MAO-A (Homo sapiens, UniProt P21397).
T4 construct: purchased Sigma
T4 sequence (P21397 1-527): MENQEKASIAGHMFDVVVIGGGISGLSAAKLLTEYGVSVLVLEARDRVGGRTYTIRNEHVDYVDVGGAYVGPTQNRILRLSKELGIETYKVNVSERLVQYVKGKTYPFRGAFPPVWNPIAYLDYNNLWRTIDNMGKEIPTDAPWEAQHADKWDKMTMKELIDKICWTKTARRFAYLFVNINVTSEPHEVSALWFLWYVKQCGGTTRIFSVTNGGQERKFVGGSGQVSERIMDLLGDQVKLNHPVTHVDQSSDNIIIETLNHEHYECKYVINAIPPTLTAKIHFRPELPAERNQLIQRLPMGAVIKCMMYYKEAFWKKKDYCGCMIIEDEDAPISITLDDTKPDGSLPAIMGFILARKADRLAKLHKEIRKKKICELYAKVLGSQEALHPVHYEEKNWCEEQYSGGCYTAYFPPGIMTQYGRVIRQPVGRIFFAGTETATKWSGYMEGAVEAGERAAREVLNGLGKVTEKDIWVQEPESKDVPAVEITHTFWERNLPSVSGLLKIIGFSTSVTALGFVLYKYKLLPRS
The class given is biochemical. To be noted: Table 7.

The target in the next assay is T5, DAO (Sus scrofa, UniProt Q9TRC7).
T5 construct: purchased Sigma
T5 sequence (Q9TRC7 25-755): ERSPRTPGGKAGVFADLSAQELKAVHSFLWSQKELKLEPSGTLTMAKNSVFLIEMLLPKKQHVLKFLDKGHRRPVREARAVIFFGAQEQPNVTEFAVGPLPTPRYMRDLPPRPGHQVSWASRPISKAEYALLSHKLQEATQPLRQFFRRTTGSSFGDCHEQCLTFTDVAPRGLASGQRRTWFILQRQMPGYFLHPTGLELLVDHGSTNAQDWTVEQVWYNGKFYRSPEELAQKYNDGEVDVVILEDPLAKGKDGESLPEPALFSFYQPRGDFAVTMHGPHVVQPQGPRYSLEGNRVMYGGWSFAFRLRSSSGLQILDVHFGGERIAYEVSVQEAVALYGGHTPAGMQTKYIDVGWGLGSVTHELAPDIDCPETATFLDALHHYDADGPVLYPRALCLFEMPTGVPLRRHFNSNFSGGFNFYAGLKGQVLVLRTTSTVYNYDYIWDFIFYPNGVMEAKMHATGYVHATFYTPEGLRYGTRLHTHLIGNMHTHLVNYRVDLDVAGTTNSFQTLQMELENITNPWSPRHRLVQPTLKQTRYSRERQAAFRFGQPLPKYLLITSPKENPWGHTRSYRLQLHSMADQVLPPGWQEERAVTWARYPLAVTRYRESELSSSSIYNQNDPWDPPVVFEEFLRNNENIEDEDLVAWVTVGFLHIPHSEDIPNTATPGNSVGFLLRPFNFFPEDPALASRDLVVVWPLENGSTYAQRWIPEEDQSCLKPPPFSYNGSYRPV
The class given is biochemical. To be noted: Table 7.

For assay [5], the target named is T6, SSAO (Homo sapiens, UniProt Q16853).
T6 construct: purchased Sigma
T6 sequence (Q16853 1-763): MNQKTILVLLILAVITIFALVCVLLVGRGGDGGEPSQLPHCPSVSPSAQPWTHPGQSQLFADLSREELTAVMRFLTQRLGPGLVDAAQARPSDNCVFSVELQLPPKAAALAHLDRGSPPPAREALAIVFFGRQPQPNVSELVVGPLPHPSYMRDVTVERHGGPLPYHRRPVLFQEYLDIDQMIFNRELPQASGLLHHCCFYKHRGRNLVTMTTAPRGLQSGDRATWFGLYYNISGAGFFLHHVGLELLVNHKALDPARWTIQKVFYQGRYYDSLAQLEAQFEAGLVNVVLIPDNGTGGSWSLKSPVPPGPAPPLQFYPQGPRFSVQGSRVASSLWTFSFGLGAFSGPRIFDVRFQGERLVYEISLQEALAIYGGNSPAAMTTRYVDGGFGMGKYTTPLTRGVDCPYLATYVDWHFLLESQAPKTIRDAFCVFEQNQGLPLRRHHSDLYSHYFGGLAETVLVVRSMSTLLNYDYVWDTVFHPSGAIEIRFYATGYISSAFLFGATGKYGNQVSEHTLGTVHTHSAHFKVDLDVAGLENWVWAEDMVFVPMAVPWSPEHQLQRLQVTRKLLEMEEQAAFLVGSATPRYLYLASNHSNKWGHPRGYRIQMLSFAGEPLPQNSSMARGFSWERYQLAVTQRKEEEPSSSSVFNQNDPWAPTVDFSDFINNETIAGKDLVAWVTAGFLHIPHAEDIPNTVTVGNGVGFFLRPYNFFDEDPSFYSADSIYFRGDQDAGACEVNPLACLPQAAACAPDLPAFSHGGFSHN
The class given is biochemical.
Protocol: (§2) All amine oxidase assays were performed with concentrations as above. MAO-A and MAO-B enzymes were purchased from Sigma. The catalytic activity of MAO-A and MAO-B was determined using the Promega MAO-Glo assay kit (substrate included), with clorgyline and deprenyl as reference inhibitor controls, respectively. DAO was purchased from Sigma, and the catalytic activity was determined using the Promega ROS-Glo assay kit, with aminoguanidine as the reference inhibitor control. SSAO was purchased from Sigma. SSAO catalytic activity was determined using the Promega MAO-Glo assay kit, with mofegiline as the reference inhibitor control.

A further assay deals with T7, MAO-B (Homo sapiens, UniProt P27338).
T7 construct: purchased Sigma
T7 sequence (P27338 1-520): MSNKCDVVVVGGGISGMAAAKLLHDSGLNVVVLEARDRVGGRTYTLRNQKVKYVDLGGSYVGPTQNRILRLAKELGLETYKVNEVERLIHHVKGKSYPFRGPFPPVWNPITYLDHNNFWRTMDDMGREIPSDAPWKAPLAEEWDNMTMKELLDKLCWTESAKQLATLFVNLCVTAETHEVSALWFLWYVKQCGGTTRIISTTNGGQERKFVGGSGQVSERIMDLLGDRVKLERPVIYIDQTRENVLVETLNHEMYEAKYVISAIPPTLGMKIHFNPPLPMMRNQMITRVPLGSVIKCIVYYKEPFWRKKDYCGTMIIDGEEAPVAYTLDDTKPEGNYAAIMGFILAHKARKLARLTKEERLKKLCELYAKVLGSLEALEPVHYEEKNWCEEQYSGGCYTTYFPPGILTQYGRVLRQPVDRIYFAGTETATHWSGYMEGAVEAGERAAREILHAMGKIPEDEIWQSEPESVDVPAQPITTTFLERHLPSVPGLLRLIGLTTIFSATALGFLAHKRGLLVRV
The class given is biochemical. To be noted: Table 7.

In assay [6] the target is T6, SSAO. In words: Assessment of compound as a substrate for SSAO (Amplex red). To be noted: hydrogen peroxide quantified with Amplex red kit; benzylamine positive control. The class given is biochemical.
[7] abbreviates: supplementary csv, unit inferred.

Protocol for DAO: as §2
Protocol for MAO-A: as §2
Protocol for MAO-B: as §2

With `N#CCCN` [BAPN, β-aminopropionitrile, reference compound], on LOXL2 [1], the “LOXL2 inhibition at 10 × IC50 before dilution” value is recorded as “complete inhibition”. On LOXL2 [1], the “mode of LOXL2 inhibition” value is “irreversible inhibitor”. In addition, the half-maximal inhibitory concentration (IC50) against LOX worked out at 3.14 µM; on LOXL3 [2] it was 0.31 µM; at LOXL2 [3] (read-out: LOXL2, 20 min, IC50) it was 4.26 µM; on LOXL2 [3] (read-out: LOXL2, 1 h, IC50), 0.665 µM; on LOXL2 [3] (read-out: LOXL2, 3 h, IC50), 0.372 µM; at LOXL2 [3] (read-out: LOXL2 IC50), 0.665 µM.

For the molecule `Cc1c(-c2cccc(S(=O)(=O)N(C)C)c2)c2ncccc2n1C/C(F)=C/CN` [Compound 1], at LOXL3 [4], the “activity for LOXL2 and LOXL3 within x-fold” value is at most 3 fold.

As to `NCc1cc(Oc2cccc(C(=O)N3C[C@@H](O)[C@H](F)C3)c2)nc(C(F)(F)F)c1` [Compound 2], at LOXL3 [4], the “activity for LOXL2 and LOXL3 within x-fold” value is given as at most 3 fold.

`Cn1cc(-c2cc(S(C)(=O)=O)cc(S(=O)(=O)c3cnc(CN)s3)c2)cn1` [Compound 21a, (5-((3-(1-Methyl-1H-pyrazol-4-yl)-5-(methylsulfonyl)phenyl)sulfonyl)thiazol-2-yl)methanamine Hydrochloride]: the IC50 against MAO-A is over 100 µM; at DAO it was over 100 µM; against LOX (Table 6, 1 h preincubation), 3.42 µM and 2.65 µM; against LOXL3 [2] it was 1.22 µM and 1.51 µM; against LOXL3 [2] (Table 6, 1 h preincubation), about 1 µM; at SSAO [5] (Table 7) it was 13.3 µM and 17.2 µM. In addition, at MAO-B, the IC50 was over 100 µM.

For `CCc1cc(-c2cnn(C)c2)cc(S(=O)(=O)c2cnc(CN)s2)c1` [Compound 21b, (5-((3-Ethyl-5-(1-methyl-1H-pyrazol-4-yl)phenyl)sulfonyl)thiazol-2-yl)methanamine Hydrochloride], the IC50 against SSAO [5] is 28.6 µM and 19.6 µM. In addition, the “substrate of SSAO” value at SSAO [6] is listed as “not a substrate of SSAO”.

As to `CS(=O)(=O)c1cc(-c2ccccc2)cc(S(=O)(=O)c2csc(CN)n2)c1` [Compound 22b, (4-((5-(Methylsulfonyl)-[1,1′-biphenyl]-3-yl)sulfonyl)thiazol-2-yl)methanamine Hydrochloride], the IC50 against MAO-A was over 100 µM; on DAO, over 100 µM; against LOX (Table 6, 1 h preincubation), over 100 µM; against LOX (setting [7]), over 100 µM; at LOXL3 [2] it was 3.86 µM and 4.26 µM; on SSAO [5] (Table 7), over 100 µM. The same molecule gave a half-inhibitory concentration (IC50) against MAO-B of over 100 µM.

As for `Cn1cc(-c2cc(S(C)(=O)=O)cc(S(=O)(=O)c3csc(CN)n3)c2)cn1` [Compound 22c, (4-((3-(1-Methyl-1H-pyrazol-4-yl)-5-(methylsulfonyl)phenyl)sulfonyl)thiazol-2-yl)methanamine Hydrochloride], the IC50 at MAO-A is over 100 µM; against DAO, over 100 µM; on LOX (Table 6, 1 h preincubation), over 100 µM; against LOX (setting [7]), over 100 µM; against LOXL3 [2], 7.56 µM and 6.69 µM; on SSAO [5] (Table 7), over 100 µM. The IC50 at MAO-B is over 100 µM.
